In one test the target is TIP60-KAT5 (Homo sapiens (Human), UniProt Q92993). Kind of test: Acetyltransferase biochemical assay (AlphaScreen), KAT5. As to conditions: 1 μM AcCoA, histone H4. For orientation: Alpha assays give light when donor and acceptor beads are brought close together.
A further test concerns the target MOZ-KAT6A (Homo sapiens (Human), UniProt Q92794). Put plainly: Acetyltransferase biochemical assay (AlphaScreen), KAT6A. As to conditions: 1 μM AcCoA, histone H3.1.
Another test concerns the target HBO-KAT7 (Homo sapiens (Human), UniProt O95251). Put plainly: Acetyltransferase biochemical assay (AlphaScreen), KAT7. As to conditions: 1 μM AcCoA, histone H3.1.
The next test has as its target MOF-KAT8 (Homo sapiens (Human), UniProt Q9H7Z6). Format: biochemical. As to conditions: 1 μM AcCoA, histone H4.
Test [1] has as its system acetylation of the histone H3 Lysine 14 marker in U2OS cells. Put plainly: Histone H3 Lysine 14 Acetylation Biomarker Assay. As to conditions: Homo sapiens. It is filed as cell-based. The method, then:
Compounds may be tested for their ability to inhibit acetylation of the histone H3 Lysine 14 marker in the following assay:
(§1) The cell line U2OS was seeded at a density of 3,000 cells per well in 384-well optical quality tissue culture plates in RPMI medium supplemented with 10% foetal bovine serum and 10 mM Hepes. The cells were allowed to adhere for 24 hours under standard culture conditions (37 degree Celsius, 5% CO2). At the end of this period the cells were washed with serum free medium. […] Plates were washed and read on a PerkinElmer Opera HCS high content imaging platform.

Test [2] deals with histone H2A.Z Lysine 7 acetylation marker in U2OS cells. Kind of test: H2A.Z Lysine 7 Acetylation Biomarker Assay. As to conditions: Homo sapiens. It is filed as cell-based. The method, then:
Compounds may be tested for their ability to inhibit the histone H2A.Z Lysine 7 acetylation marker in the following assay:
as §1

The test system of test [3] is acetylation of the histone H3K23 marker in U2OS cells. Kind of test: Histone H3 Lysine 23 Acetylation Biomarker Assay. As to conditions: Homo sapiens. Format: cell-based. The method, then: Compounds may be tested for their ability to inhibit acetylation of the histone H3K23 marker in the following assay:
The cell line U2OS was seeded at a density of 9,000 cells per well in 96 well optical quality tissue culture plates in RPMI medium and 10% foetal bovine serum, and allowed to adhere for 24 hours under standard culture conditions (37 degree Celsius, 5% CO2). At the end of this period the medium was aspirated. […] After incubation for 24 hours, the cells were fixed with 3.7% formaldehyde in PBS for 20 minutes at room temperature, washed (5×5 minutes) with phosphate buffer saline containing 0.1% Tween 20 and blocked with Odyssey blocking buffer (LI-COR, Lincoln, NE) containing 0.1% TritonX100. Anti-H3K23ac specific antibody (Abcam ab177275) in Odyssey blocking buffer containing 0.1% Tween 20 was added and incubated for 16 hours at 4 degree Celsius. […] Plates were washed as previously and read on a PerkinElmer Phenix high content imaging platform.

[4] abbreviates: H3K14ac, U2OS cells, serum free medium, 24 hours, read-out: IC50.
Where [5] appears, read: H2A.ZK7ac, U2OS cells, serum free medium, 24 hours, read-out: IC50.
Setting [6] is: H3K23ac, U2OS cells, 24 hours, read-out: IC50.

Molecules are shown by their SMILES. Like-named read-outs stand apart in the source and are kept apart here.

Chain of HBO-KAT7 (O95251 other isoform, or with tags, fused parts or gaps): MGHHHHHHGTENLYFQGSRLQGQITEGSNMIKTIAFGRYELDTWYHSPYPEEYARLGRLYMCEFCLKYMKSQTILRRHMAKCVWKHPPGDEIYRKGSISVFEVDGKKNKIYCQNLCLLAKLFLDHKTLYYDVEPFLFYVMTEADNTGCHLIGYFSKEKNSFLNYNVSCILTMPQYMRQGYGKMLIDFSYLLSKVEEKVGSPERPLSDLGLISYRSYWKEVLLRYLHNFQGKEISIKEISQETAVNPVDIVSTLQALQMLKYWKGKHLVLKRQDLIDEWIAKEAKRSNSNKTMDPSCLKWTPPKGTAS
Chain of TIP60-KAT5 (Q92993 other isoform, or with tags, fused parts or gaps): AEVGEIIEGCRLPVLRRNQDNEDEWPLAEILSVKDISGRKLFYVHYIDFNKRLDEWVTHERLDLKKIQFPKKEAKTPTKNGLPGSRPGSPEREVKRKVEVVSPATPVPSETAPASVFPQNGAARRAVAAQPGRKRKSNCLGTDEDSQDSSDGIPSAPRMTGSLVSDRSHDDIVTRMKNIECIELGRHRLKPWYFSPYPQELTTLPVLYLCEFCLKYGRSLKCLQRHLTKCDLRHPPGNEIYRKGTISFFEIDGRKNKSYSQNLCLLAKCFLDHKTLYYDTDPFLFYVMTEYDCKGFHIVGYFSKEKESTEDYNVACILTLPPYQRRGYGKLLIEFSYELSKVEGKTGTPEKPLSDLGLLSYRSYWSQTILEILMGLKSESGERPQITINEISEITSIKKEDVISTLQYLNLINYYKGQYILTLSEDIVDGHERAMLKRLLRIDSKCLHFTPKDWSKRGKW
Chain of MOF-KAT8 (Q9H7Z6 177-447): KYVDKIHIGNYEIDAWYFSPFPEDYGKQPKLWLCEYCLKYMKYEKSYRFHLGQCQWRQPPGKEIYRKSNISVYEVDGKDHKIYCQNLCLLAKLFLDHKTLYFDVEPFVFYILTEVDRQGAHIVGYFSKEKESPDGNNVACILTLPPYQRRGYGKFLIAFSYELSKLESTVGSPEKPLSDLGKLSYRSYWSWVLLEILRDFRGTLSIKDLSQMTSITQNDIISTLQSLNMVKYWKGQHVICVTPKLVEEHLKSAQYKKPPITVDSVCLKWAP
Chain of MOZ-KAT6A (Q92794 other isoform, or with tags, fused parts or gaps): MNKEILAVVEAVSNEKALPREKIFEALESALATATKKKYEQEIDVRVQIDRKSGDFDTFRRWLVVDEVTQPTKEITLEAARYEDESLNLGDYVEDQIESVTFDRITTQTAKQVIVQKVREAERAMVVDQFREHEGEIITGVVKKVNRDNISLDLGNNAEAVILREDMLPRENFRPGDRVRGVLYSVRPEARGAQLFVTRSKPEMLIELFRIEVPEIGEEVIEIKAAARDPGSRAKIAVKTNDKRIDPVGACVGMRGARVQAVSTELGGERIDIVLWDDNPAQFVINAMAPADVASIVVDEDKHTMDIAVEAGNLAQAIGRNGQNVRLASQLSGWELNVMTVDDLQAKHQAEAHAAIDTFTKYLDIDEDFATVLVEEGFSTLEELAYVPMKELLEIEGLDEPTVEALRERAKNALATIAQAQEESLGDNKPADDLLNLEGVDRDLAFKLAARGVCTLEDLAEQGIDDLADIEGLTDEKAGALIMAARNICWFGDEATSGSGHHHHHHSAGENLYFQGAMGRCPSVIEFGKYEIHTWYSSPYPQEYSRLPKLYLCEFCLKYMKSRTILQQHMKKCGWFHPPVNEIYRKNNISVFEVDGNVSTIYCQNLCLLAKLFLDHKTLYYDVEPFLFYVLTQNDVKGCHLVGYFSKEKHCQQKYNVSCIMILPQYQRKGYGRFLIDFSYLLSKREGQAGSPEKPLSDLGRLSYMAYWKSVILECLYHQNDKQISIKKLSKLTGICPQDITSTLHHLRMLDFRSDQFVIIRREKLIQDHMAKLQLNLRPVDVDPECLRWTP

For the molecule `CCc1ccc(OC)c(S(=O)(=O)Nc2cc(-c3ccncc3)no2)c1` [Example 85, 5-Ethyl-2-methoxy-N-(3-(pyridin-4-yl)isoxazol-5-yl)benzenesulfonamide], the concentration for half-maximal inhibition (IC50) – broadly, the concentration that gives 50% inhibition – at TIP60-KAT5 is above 125 µM.

As to `COc1ccccc1-c1nnc(NS(=O)(=O)C2CCOCC2)s1` [Example 127, N-(5-(2-methoxyphenyl)-1,3,4-thiadiazol-2-yl)tetrahydro-2H-pyran-4-sulfonamide], the IC50 on MOZ-KAT6A and against TIP60-KAT5 was above 125 µM each time. `O=S(=O)(Nc1cc(-c2ccccc2)on1)c1cccc(Cl)c1` [Example 35, 3-chloro-N-(5-phenylisoxazol-3-yl)benzenesulfonamide]: the IC50 against TIP60-KAT5 and against HBO-KAT7 was above 125 µM in each case. For the molecule `O=S(=O)(Nc1cc(-c2ccccc2)on1)c1cccnc1` [Example 30, N-(5-phenylisoxazol-3-yl)pyridine-3-sulfonamide], the IC50 against TIP60-KAT5 and against HBO-KAT7 was above 125 µM each time. At HBO-KAT7, `COC(=O)c1c(-c2ccc(OC)cc2)noc1NS(=O)(=O)c1ccc(C)c(C)c1` [Example 83, methyl 5-((3,4-dimethylphenyl)sulfonamido)-3-(4-methoxyphenyl)isoxazole-4-carboxylate] registered a 50% inhibitory concentration (IC50) above 125 µM.

For `COc1ccccc1-c1cc(N(C)S(=O)(=O)c2c(OC)cc(-c3ccccc3)cc2OC)no1` [Example 55, 2,6-Dimethoxy-N-[5-(2-methoxyphenyl)isoxazol-3-yl]-N-methyl-4-phenyl-benzenesulfonamide], the IC50 on MOF-KAT8 and at TIP60-KAT5 was above 125 µM each time. On to `COc1cccc(OC)c1S(=O)(=O)Nc1nnc(-c2ccccc2Cn2cccn2)s1` [Example 101, N-(5-(2-((1H-Pyrazol-1-yl)methyl)phenyl)-1,3,4-thiadiazol-2-yl)-2,6-dimethoxybenzenesulfonamide], for which the IC50 at MOZ-KAT6A and on TIP60-KAT5 was above 125 µM each time. The molecule `CCc1ccc(OC)c(S(=O)(=O)Nc2nnc(-c3ccc(OC)c(OC)c3)o2)c1` [Example 125, N-(5-(3,4-Dimethoxyphenyl)-1,3,4-oxadiazol-2-yl)-5-ethyl-2-methoxybenzenesulfonamide] came in with an IC50 against TIP60-KAT5 above 125 µM. On the same count and under the same terms, the figure for `O=S(=O)(Nc1cc(-c2ccccc2)on1)c1ccc(C(F)(F)F)cc1` [Example 47, N-(5-phenylisoxazol-3-yl)-4-(trifluoromethyl)benzenesulfonamide] is above 125 µM. At MOF-KAT8, `O=S(=O)(Nc1cc(-c2ccccc2)on1)c1ccccc1` [Example 63, N-(5-phenylisoxazol-3-yl)benzenesulfonamide] yielded a concentration for half-maximal inhibition (IC50) above 125 µM. For the molecule `O=S(=O)(Nc1noc(-c2ccccc2)n1)c1ccccc1F` [Example 68, 2-Fluoro-N-(5-phenyl-1,2,4-oxadiazol-3-yl)benzenesulfonamide], the half-inhibitory concentration (IC50) on TIP60-KAT5 and on HBO-KAT7 was above 125 µM in each case. `N#Cc1ccc(S(=O)(=O)Nc2cc(-c3ccccc3)on2)cc1` [Example 45, 4-cyano-N-(5-phenylisoxazol-3-yl)benzenesulfonamide]: the IC50 against MOF-KAT8 and against TIP60-KAT5 was above 125 µM in each case. At TIP60-KAT5, `COc1cccc(S(=O)(=O)Nc2cc(-c3ccccc3)on2)c1` [Example 36, 3-methoxy-N-(5-phenylisoxazol-3-yl)benzenesulfonamide] registered an IC50 above 125 µM. Consider `COc1ccc(-c2ncco2)cc1-c1cc(NS(=O)(=O)c2c(OC)cccc2OC)no1` [Example 18, 2,6-Dimethoxy-N-(5-(2-methoxy-5-(oxazol-2-yl)phenyl)isoxazol-3-yl)benzenesulfonamide], for which the IC50 in test [1] (setting [4]) was found to be 3.84 µM; in test [2] (setting [5]), 19.9 µM; in test [3] (setting [6]), 1.53 µM. As for `CCOc1ccc(OC)cc1-c1cc(NS(=O)(=O)c2c(OC)cccc2OC)no1` [Example 16, N-(5-(2-Ethoxy-5-methoxyphenyl)isoxazol-3-yl)-2,6-dimethoxybenzenesulfonamide], the IC50 in test [1] (setting [4]) was 0.193 µM; in test [2] (setting [5]), 1.77 µM; in test [3] (setting [6]) it was 0.117 µM. On the same counts, the results for `COCc1ccc(OC)cc1-c1nnc(NS(=O)(=O)c2c(OC)cccc2OC)s1` [Example 96, 2,6-Dimethoxy-N-(5-(5-methoxy-2-(methoxymethyl)phenyl)-1,3,4-thiadiazol-2-yl)benzenesulfonamide] are 7.38 µM, 27.2 µM and 3.94 µM. For the molecule `COc1ccccc1-c1cc(NS(=O)(=O)Nc2ccccc2)no1` [Example 116, N-Phenyl((5-(2-methoxyphenyl)-1,2-oxazol-3-yl)amino)sulfonamide], the half-inhibitory concentration (IC50) in test [1] (U2OS, 24 h) was above 40 µM; in test [2] (U2OS, 24 h) it was above 40 µM; in test [3] (U2OS, 24 h), above 20 µM.

Turning to `COc1ccc(OC)c(-c2cc(NS(=O)(=O)c3c(OC)cccc3OC)no2)c1` [Example 7, N-(5-(2,5-Dimethoxyphenyl)isoxazol-3-yl)-2,6-dimethoxybenzenesulfonamide], the IC50 in test [1] (U2OS, 24 h) amounted to 0.496 µM; in test [2] (U2OS, 24 h), 2.19 µM; in test [3] (U2OS, 24 h), 0.0491 µM. Turning to `N#Cc1cccc(S(=O)(=O)Nc2cc(-c3ccccc3)on2)c1` [Example 46, 3-cyano-N-(5-phenylisoxazol-3-yl)benzenesulfonamide], the IC50 against TIP60-KAT5 was above 125 µM.
